Substitutions are numbered along the chain they refer to.
What was measured:
Type in all cases: cell-based
Kir3 channels [1] = target: T1, Kir3 channels (Mus musculus, UniProt P48542); assay: patch-clamp determination of ion transport activity: activation of Kir3 channels; settings: read-out: Maximal activation of Kir3 channels relative to that of 100 mM EtOH
T1 construct: other: patch-clamp; other: 100 mM
T1 sequence (P48542 1-425): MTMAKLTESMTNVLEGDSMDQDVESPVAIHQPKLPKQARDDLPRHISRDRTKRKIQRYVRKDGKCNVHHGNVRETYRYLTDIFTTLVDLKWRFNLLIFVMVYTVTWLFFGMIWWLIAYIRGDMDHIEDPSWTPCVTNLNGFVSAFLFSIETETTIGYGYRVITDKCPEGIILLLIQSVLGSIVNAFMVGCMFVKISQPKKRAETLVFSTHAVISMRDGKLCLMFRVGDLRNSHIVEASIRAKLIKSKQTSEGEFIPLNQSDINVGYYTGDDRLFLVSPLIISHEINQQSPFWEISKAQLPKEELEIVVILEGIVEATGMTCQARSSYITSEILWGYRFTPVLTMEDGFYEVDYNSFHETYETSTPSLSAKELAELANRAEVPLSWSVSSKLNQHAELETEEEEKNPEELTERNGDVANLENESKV
Excerpt: (§1) It has been determined that inwardly rectifying potassium (Kir) channels are regulated directly by small molecule alcohol compounds. Three-dimensional crystallographic analysis of Kir channels has elucidated atomic details of binding pocket interactions with 2-methyl-2,4-pentanediol (MPD). MPD inhibits Kir2 channel activity and activates Kir3 channel activity. Amino acid substitutions in this hydrophobic pocket of the channel protein may alter the response to MPD. As determined by patch-clamp determinations of ion transport activity, a racemic mixture of 2-methyl-2,4-pentanediol, (±)MPD, activates Kir3 channels with an EC50 of >200 mM and inhibits Kir2 homotetramer channels with an IC50 of ˜200 mM. […] Bupivacaine inhibits Kir3.1/3.4 and Kir3.1/3.2 channels with an IC50 of ˜20-40 micromolar.
(§2) The following also were observed. Maximal activation of Kir3 channels by 100 mM (±)MPD is 280% that of 100 mM EtOH. Maximal activation of Kir3 channels by 100 mM R(−)2 methyl-2,4-pentanediol is 60% that of 100 mM (±)MPD. Maximal activation of Kir3 channels by 100 mM 3-methyl-1,3,5-pentanetriol is 70% that of 100 mM (±)MPD. Maximal activation of Kir3 channels by 100 mM 2,5-dimethyl-1,2,6-hexanetriol is 70% that of 100 mM (±)MPD. Maximal activation of Kir3 channels by 100 mM (±) 2,4-pentanediol is 50% that of 100 mM (±)MPD.

Kir3 channels [2] = assay: as above; settings: Kir3 activation or Kir2 inactivation
Excerpt: as §1, §2

[3] = target: T2, GIRK2 L257A mutant channel (Mus musculus, UniProt P48542, L257A); assay: whole-cell patch clamp, GIRK2 L257A mutant channel; settings: n=9; for activation of GIRK2 L257A, percentage change from basal current: alcohols as for wild type (100 mM)
T2 construct: expressed in transfected cells; host or cells: HEK293T
T2 sequence (P48542 1-425 L257A): T1 sequence (P48542 1-425) with L257A
Method: (§3) Point mutations were introduced by Quickchange site directed mutagenesis kit (Stratagene). The GIRK2 PIP mutant was generated by overlap-PCR method. […] Mutations were confirmed by automated DNA sequencing methods. […] Cells were plated in a 12 well dish, and were transiently transfected using Lipofectamine 2000 (Invitrogen). After 12-24 hrs, cells were re-plated to 12-mm glass coverslips coated with poly-D-[…] microgram/ml). […] The cells were co-transfected with 0.04 micrograms of eYFP cDNA to identify transfected cells. 0.8 micrograms of Muscarinic Receptor 2 (M2R) was also co-transfected for experiments with Carbachol. […] Whole-cell patch clamp recordings were performed 24-72 hrs after transfection. […] Alcohols, 5 μM Carbachol, and 1 mM BaCl2 (diluted in 20K solution) were applied from outside the cell with the rapid perfusion system (Warner Instruments). […] Current-voltage relationships also were obtained from the ramp protocol. This protocol was used to measure the inwardly rectifying currents at -100 mV and to ensure stability of recording by monitoring a reversal potential and inward rectification. […] Alcohol and Carbachol modulated currents were measured by averaging two consecutive current readings upon reaching steady state, and subtracting the averaged basal current before and after the application of modulator.

[4] = target: T3, Kir2 homotetramer channels (Mus musculus, UniProt P35561); assay: patch-clamp determination of ion transport activity: inhibition of Kir2 channels (Kir2.1 expressed in HEK293 cells); settings: as stated in the detailed description; read-out: IC50 for inhibition of Kir 2.1 channels
T3 construct: expressed in transfected cells; host or cells: HEK293
Excerpt: as §1
The effect of MPD on Kir2 channel activity was analyzed further. […] The fractional current remaining is plotted as a function of MPD concentration. The response for each cell was fit with the Hill equation. The average IC50 and Hill coefficients are shown (n=6).

[5] = tested on: GIRK2 PIP S148T mutant channel; assay: whole-cell patch clamp, GIRK2 PIP S148T mutant channel; settings: GIRK2 PIP S148T compared with GIRK2 PIP L257W
Method: as §3

[6] = target: T4, GIRK2 Y349W mutant channel (Mus musculus, UniProt P48542, Y349W); assay: whole-cell patch clamp, GIRK2 Y349W mutant channel; settings: n=10
T4 construct: expressed in transfected cells; host or cells: HEK293T
Method: as §3

T4 sequence (P48542 whole entry Y349W): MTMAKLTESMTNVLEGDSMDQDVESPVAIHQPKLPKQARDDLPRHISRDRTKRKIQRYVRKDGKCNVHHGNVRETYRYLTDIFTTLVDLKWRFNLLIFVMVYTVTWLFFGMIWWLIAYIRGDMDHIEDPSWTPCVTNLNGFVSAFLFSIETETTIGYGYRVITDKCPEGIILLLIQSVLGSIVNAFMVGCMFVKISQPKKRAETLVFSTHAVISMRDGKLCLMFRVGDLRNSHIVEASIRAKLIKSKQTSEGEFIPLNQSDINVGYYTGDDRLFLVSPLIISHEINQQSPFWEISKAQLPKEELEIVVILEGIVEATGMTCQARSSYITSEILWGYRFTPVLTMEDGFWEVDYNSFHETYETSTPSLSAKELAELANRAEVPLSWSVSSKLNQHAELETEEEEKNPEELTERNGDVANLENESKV
T3 sequence (P35561 whole entry): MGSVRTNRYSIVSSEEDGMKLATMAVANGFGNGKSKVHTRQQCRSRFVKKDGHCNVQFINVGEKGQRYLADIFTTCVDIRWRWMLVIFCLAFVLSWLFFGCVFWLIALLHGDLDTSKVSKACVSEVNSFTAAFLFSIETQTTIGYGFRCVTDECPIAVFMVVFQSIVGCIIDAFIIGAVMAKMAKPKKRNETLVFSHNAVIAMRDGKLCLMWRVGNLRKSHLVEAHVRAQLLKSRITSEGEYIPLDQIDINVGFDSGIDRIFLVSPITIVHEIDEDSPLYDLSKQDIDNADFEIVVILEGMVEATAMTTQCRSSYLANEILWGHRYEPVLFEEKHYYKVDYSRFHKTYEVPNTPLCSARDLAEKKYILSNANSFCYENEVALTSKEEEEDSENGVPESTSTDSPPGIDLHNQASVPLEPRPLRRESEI

## CC(O)CC(C)(C)O (racemic) [MPD, 2-methyl-2,4-pentanediol]
Kir3 channels [1]
  Emax at 100000 µM: 280%
Kir3 channels [2]
  time course of inactivation or activation after application: within seconds
[3]
  activation of GIRK2 L257A, percentage change from basal current: 330±27%
[4]
  IC50: ~100 mM
[5]
  change in sensitivity to inhibition when Ser at the P-loop is mutated to Thr: ~20 fold

## C[N+](C)(C)CCOC(N)=O [Carbachol]
[3]; 5 μM Carbachol, M2R co-transfected
  Carbachol activated currents, GIRK2 L257A, percentage change from basal current: 36±6%
[6]; 5 μM Carbachol
  Carbachol activated current, GIRK2 Y349W, percentage change from basal current: 56±5

## 1-propanol [1-PrOH]
[3]
  activation of GIRK2 L257A, percentage change from basal current: 467±44%
[6]
  1-PrOH activated current, GIRK2 Y349W, percentage change from basal current: 256±25%
[5]
  change in sensitivity to inhibition when Ser at the P-loop is mutated to Thr: ~100 fold

## CCO [EtOH, ethanol]
[3]
  activation of GIRK2 L257A, percentage change from basal current: 132±9%
